According to ChEMBL document CHEMBL4706505, “F10, a new camptothecin derivative, was identified as a new orally-bioavailable, potent antitumor agent” (Eur J Med Chem, 2020):
≈ marks a conversion by molar mass, not a printed value.

Key:
[1] = Solubility of compound in phosphate buffer at pH 7.4 incubated for 24 hrs under shaking condition by HPLC analysis; type: physicochemical
Raji = assay: Antitumor activity against NPG mouse xenografted with human Raji cell assessed as tumor growth inhibition at 8 mg/kg, ig measured after 5 day; type: functional; settings: po, 120 h, read-out: TGI
[2] = Toxicity in Kunming mouse assessed as mortality at 150 mg/kg ip measured once every 30 mins upto 10 days; type: organism-based; settings: in vivo, 0.5 h
[3] = Clearance in nude BALB/c mouse serum at 8.0 mg/kg incubated up to 9 hrs, iv administered […] by LC-MS/MS analysis; type: ADME, organism-based

Question: For `CCc1c2c(nc3ccc(OCC(=O)N4CCCCC4)cc13)-c1cc3c(c(=O)n1C2)COC(=O)[C@]3(O)CC`, which solubility thermodynamic at 24 h [1] is on record?
Answer: 19.9 µg/mL (≈ 38.4 µM)

Question: And the inhibition in vivo at 8 mg/kg (Raji)?
Answer: 81.3%

Question: What about the Activity [2] of the same molecule?
Answer: Non-Toxic

Question: And the clearance [3]?
Answer: 0.179 mL/min
